Experimental data from ChEMBL document CHEMBL4251572, “Novel aminopyrimidinyl benzimidazoles as potentially antimicrobial agents: Design, synthesis and biological evaluation” (Eur J Med Chem, 2018).
≈ marks a conversion by molar mass, not a printed value.

How the values were obtained:
Candida albicans = assay: Antifungal against Candida albicans ATCC 76615 after 24 hrs by two fold serial dilution method; format: functional; conditions: ATCC 76615, 24 h
Aspergillus flavus = assay: Antifungal against Aspergillus flavus after 24 hrs by two fold serial dilution method; format: functional
Bacillus subtilis = assay: Antibacterial activity against Bacillus subtilis after 24 hrs by micro broth dilution assay; format: functional
Salmonella typhi = assay: Antibacterial activity against Bacillus typhi after 24 hrs by micro broth dilution assay; format: functional, Salmonella enterica subsp. enterica serovar Typhi; conditions: Salmonella enterica
Staphylococcus aureus [1] = assay: Antibacterial activity against Staphylococcus aureus ATCC 25923 after 24 hrs by micro broth dilution assay; format: functional; conditions: ATCC 25923, 24 h
Saccharomyces cerevisiae = assay: Antifungal against Saccharomyces cerevisiae after 24 hrs by two fold serial dilution method; format: functional
Staphylococcus aureus [2] = assay: Antibacterial activity against methicillin-resistant Staphylococcus aureus N315 after 24 hrs by micro broth dilution assay; format: functional; conditions: N315, 24 h
Pseudomonas aeruginosa = assay: Antibacterial activity against Pseudomonas aeruginosa after 24 hrs by micro broth dilution assay; format: functional
Pichia norvegensis = assay: Antifungal against Candida mycoderma after 24 hrs by two fold serial dilution method; format: functional
Cyberlindnera jadinii = assay: Antifungal against Candida utilis after 24 hrs by two fold serial dilution method; format: functional; conditions: Williopsis jadinii
Shigella dysenteriae = assay: Antibacterial activity against Shigella dysenteriae after 24 hrs by micro broth dilution assay; format: functional
Micrococcus luteus = assay: Antibacterial activity against Micrococcus luteus ATCC4698 after 24 hrs by micro broth dilution assay; format: functional; conditions: ATCC4698, 24 h
Escherichia coli [3] = assay: Antibacterial activity against Escherichia coli JM109 after 24 hrs by micro broth dilution assay; format: functional; conditions: JM109, 24 h
Bacillus = assay: Antibacterial activity against Bacillus proteus ATCC 13315 after 24 hrs by micro broth dilution assay; format: functional; conditions: ATCC 13315, 24 h
Escherichia coli [4] = assay: Antibacterial activity against Escherichia coli DH52 after 24 hrs by micro broth dilution assay; format: functional; conditions: DH52, 24 h

Compound	MIC (Candida albicans)	MIC (Aspergillus flavus)	MIC (Bacillus subtilis)	MIC (Salmonella typhi)	MIC (Staphylococcus aureus [1])	MIC (Saccharomyces cerevisiae)	MIC (Staphylococcus aureus [2])	MIC (Pseudomonas aeruginosa)	MIC (Pichia norvegensis)	MIC (Cyberlindnera jadinii)	MIC (Shigella dysenteriae)	MIC (Micrococcus luteus)	MIC (Escherichia coli [3])	MIC (Bacillus)	MIC (Escherichia coli [4])
CCCCCCCCn1c(-c2cc(-c3ccc(Cl)cc3Cl)nc(N)n2)nc2ccccc21	512 µg/mL (≈ 1090 µM)	512 µg/mL (≈ 1090 µM)	512 µg/mL (≈ 1090 µM)	512 µg/mL (≈ 1090 µM)	256 µg/mL (≈ 547 µM)	16 µg/mL (≈ 34.2 µM)	256 µg/mL (≈ 547 µM)	512 µg/mL (≈ 1090 µM)	512 µg/mL (≈ 1090 µM)	8 µg/mL (≈ 17.1 µM)	512 µg/mL (≈ 1090 µM)	32 µg/mL (≈ 68.3 µM)	512 µg/mL (≈ 1090 µM)	4 µg/mL (≈ 8.54 µM)	512 µg/mL (≈ 1090 µM)
CCCCCCn1c(C(=O)/C=C/c2ccc(Cl)cc2Cl)nc2ccccc21	512 µg/mL (≈ 1280 µM)	512 µg/mL (≈ 1280 µM)	512 µg/mL (≈ 1280 µM)	512 µg/mL (≈ 1280 µM)	32 µg/mL (≈ 79.7 µM)	512 µg/mL (≈ 1280 µM)	256 µg/mL (≈ 638 µM)	512 µg/mL (≈ 1280 µM)	512 µg/mL (≈ 1280 µM)	512 µg/mL (≈ 1280 µM)	512 µg/mL (≈ 1280 µM)	512 µg/mL (≈ 1280 µM)	512 µg/mL (≈ 1280 µM)	512 µg/mL (≈ 1280 µM)	512 µg/mL (≈ 1280 µM)
CCCCCCCCn1c(C(=O)/C=C/c2ccc(C)cc2)nc2ccccc21	256 µg/mL (≈ 684 µM)	512 µg/mL (≈ 1370 µM)	512 µg/mL (≈ 1370 µM)	512 µg/mL (≈ 1370 µM)	512 µg/mL (≈ 1370 µM)	512 µg/mL (≈ 1370 µM)	512 µg/mL (≈ 1370 µM)	512 µg/mL (≈ 1370 µM)	512 µg/mL (≈ 1370 µM)	256 µg/mL (≈ 684 µM)	512 µg/mL (≈ 1370 µM)	512 µg/mL (≈ 1370 µM)	512 µg/mL (≈ 1370 µM)	512 µg/mL (≈ 1370 µM)	512 µg/mL (≈ 1370 µM)
CCCCCCCn1c(C(=O)/C=C/c2ccc(C)cc2)nc2ccccc21	16 µg/mL (≈ 44.4 µM)	512 µg/mL (≈ 1420 µM)	512 µg/mL (≈ 1420 µM)	512 µg/mL (≈ 1420 µM)	4 µg/mL (≈ 11.1 µM)	512 µg/mL (≈ 1420 µM)	8 µg/mL (≈ 22.2 µM)	512 µg/mL (≈ 1420 µM)	512 µg/mL (≈ 1420 µM)	512 µg/mL (≈ 1420 µM)	512 µg/mL (≈ 1420 µM)	512 µg/mL (≈ 1420 µM)	512 µg/mL (≈ 1420 µM)	512 µg/mL (≈ 1420 µM)	512 µg/mL (≈ 1420 µM)
CCCCCCCn1c(-c2cc(-c3ccc(Cl)cc3)nc(N)n2)nc2ccccc21	128 µg/mL (≈ 305 µM)	256 µg/mL (≈ 610 µM)	2 µg/mL (≈ 4.76 µM)	8 µg/mL (≈ 19 µM)	128 µg/mL (≈ 305 µM)	8 µg/mL (≈ 19 µM)	8 µg/mL (≈ 19 µM)	64 µg/mL (≈ 152 µM)	16 µg/mL (≈ 38.1 µM)	4 µg/mL (≈ 9.52 µM)	4 µg/mL (≈ 9.52 µM)	512 µg/mL (≈ 1220 µM)	512 µg/mL (≈ 1220 µM)	512 µg/mL (≈ 1220 µM)	16 µg/mL (≈ 38.1 µM)
CCCCCCCn1c(C(=O)/C=C/c2ccc(Cl)cc2Cl)nc2ccccc21	512 µg/mL (≈ 1230 µM)	512 µg/mL (≈ 1230 µM)	512 µg/mL (≈ 1230 µM)	512 µg/mL (≈ 1230 µM)	128 µg/mL (≈ 308 µM)	512 µg/mL (≈ 1230 µM)	512 µg/mL (≈ 1230 µM)	512 µg/mL (≈ 1230 µM)	512 µg/mL (≈ 1230 µM)	512 µg/mL (≈ 1230 µM)	256 µg/mL (≈ 616 µM)	512 µg/mL (≈ 1230 µM)	512 µg/mL (≈ 1230 µM)	512 µg/mL (≈ 1230 µM)	512 µg/mL (≈ 1230 µM)
CCCCn1c(C(=O)/C=C/c2ccc(Cl)cc2Cl)nc2ccccc21	256 µg/mL (≈ 686 µM)	512 µg/mL (≈ 1370 µM)	64 µg/mL (≈ 171 µM)	512 µg/mL (≈ 1370 µM)	512 µg/mL (≈ 1370 µM)	16 µg/mL (≈ 42.9 µM)	8 µg/mL (≈ 21.4 µM)	512 µg/mL (≈ 1370 µM)	128 µg/mL (≈ 343 µM)	512 µg/mL (≈ 1370 µM)	16 µg/mL (≈ 42.9 µM)	512 µg/mL (≈ 1370 µM)	256 µg/mL (≈ 686 µM)	512 µg/mL (≈ 1370 µM)	512 µg/mL (≈ 1370 µM)
CCCCCCCCn1c(-c2cc(-c3ccc(Cl)cc3)nc(N)n2)nc2ccccc21	8 µg/mL (≈ 18.4 µM)	256 µg/mL (≈ 590 µM)	2 µg/mL (≈ 4.61 µM)	4 µg/mL (≈ 9.22 µM)	256 µg/mL (≈ 590 µM)	8 µg/mL (≈ 18.4 µM)	128 µg/mL (≈ 295 µM)	32 µg/mL (≈ 73.7 µM)	8 µg/mL (≈ 18.4 µM)	8 µg/mL (≈ 18.4 µM)	32 µg/mL (≈ 73.7 µM)	16 µg/mL (≈ 36.9 µM)	512 µg/mL (≈ 1180 µM)	256 µg/mL (≈ 590 µM)	512 µg/mL (≈ 1180 µM)
CCCCCCn1c(-c2cc(-c3ccc(F)cc3)nc(N)n2)nc2ccccc21	256 µg/mL (≈ 657 µM)	512 µg/mL (≈ 1310 µM)	512 µg/mL (≈ 1310 µM)	32 µg/mL (≈ 82.2 µM)	512 µg/mL (≈ 1310 µM)	512 µg/mL (≈ 1310 µM)	256 µg/mL (≈ 657 µM)	128 µg/mL (≈ 329 µM)	4 µg/mL (≈ 10.3 µM)	8 µg/mL (≈ 20.5 µM)	512 µg/mL (≈ 1310 µM)	16 µg/mL (≈ 41.1 µM)	512 µg/mL (≈ 1310 µM)	128 µg/mL (≈ 329 µM)	512 µg/mL (≈ 1310 µM)
O=C(/C=C/c1ccc(Cl)cc1Cl)c1nc2ccccc2[nH]1	256 µg/mL (≈ 807 µM)	512 µg/mL (≈ 1610 µM)	64 µg/mL (≈ 202 µM)	512 µg/mL (≈ 1610 µM)	128 µg/mL (≈ 404 µM)	16 µg/mL (≈ 50.4 µM)	256 µg/mL (≈ 807 µM)	512 µg/mL (≈ 1610 µM)	512 µg/mL (≈ 1610 µM)	64 µg/mL (≈ 202 µM)	256 µg/mL (≈ 807 µM)	512 µg/mL (≈ 1610 µM)	128 µg/mL (≈ 404 µM)	512 µg/mL (≈ 1610 µM)	512 µg/mL (≈ 1610 µM)
OC(Cn1cncn1)(Cn1cncn1)c1ccc(F)cc1F [FLUCONAZOLE]	1 µg/mL (≈ 3.27 µM)	256 µg/mL (≈ 836 µM)				8 µg/mL (≈ 26.1 µM)			4 µg/mL (≈ 13.1 µM)	16 µg/mL (≈ 52.2 µM)					
